# Assay results published in article PMC10002220, “In Vivo Reversal of P-Glycoprotein-Mediated Drug Resistance in a Breast Cancer Xenograft and in Leukemia Models Using a Novel, Potent, and Nontoxic Epicatechin EC31” (International Journal of Molecular Sciences, 2023).
# Read-outs that look alike come from different tables or passages of the source.
# Columns and labels:
# K562/P-gp cells = test: EC31 efflux in K562/P-gp cells; format: cell-based, human; details: after 150 min of efflux, preincubated with 1 µM
# Protocol: (§1) N = 3 independent experiments.
# (§2) After incubation, the medium was removed, and cells were washed with cold PBS twice. To the cell pellet, 300 μL of acetonitrile was added. The cells were sonicated for 10 min at 50 Hz using Intertek-CD-3800(A) sonicator. The lysed cells were then spun at 14,000 rpm for 10 min at room temperature. The supernatant containing EC31 was saved and was filtered with 0.45 µm syringe filter before UPLC-MS/MS analysis. For the efflux assay, the cells were preincubated with 1 μM EC31 at 37 °C for 2.5 h. The cells were then washed with PBS, were resuspended in drug-free medium, and were further incubated at 37 °C. The cells were collected at 0, 30, 60, and 150 min, respectively. The intracellular EC31 at different time points was analyzed as described in the Section 4.9.
# [1] = Pharmacokinetics of methylated catechin derivatives in plasma; format: in vivo, BALB/c mice; details: BALB/c, mouse; for AUC(0-inf): read-out: AUC0-infinity (converted)
# Protocol: Figure 4 Pharmacokinetics of methylated catechin derivatives and their effects on the PK of PTX. BALB/c mice were i.v. injected with 10 mg/kg or i.p. injected with 30 mg/kg of modulators. At 10, 30, 60, 180, 420, 840, and 1080 min postadministration, animals were sacrificed to collect their blood, and then the plasma concentration of modulator was determined using UPLC-MS/MS. The % of bioavailability of each modulator injected through i.p. injection route was calculated by comparing it to its plasma level when injected via i.v. injection. […] (E) Pharmacokinetic (PK) profiles of 4 potent methylated catechin derivatives were summarized. (F) The effect of modulators (GC51, EC31, or C25) on the PK of PTX was firstly determined through i.p. injection of modulator at 30 mg/kg 1 h prior to i.v. injection of 12 mg/kg PTX. At 10, 30, 60, 120, 240, and 420 min postadministration of PTX, animals were sacrificed. Plasma level of PTX was quantified through LC/MSMS. The dashed line indicates the corresponding EC50 of modulator in vitro for reversing PTX resistance. […] There were 3 mice at each time point. All pharmacokinetic parameters were calculated with the pharmacokinetic software Summit® PK solution. Two-tailed test was conducted for the AUC value of PTX alone and cotreatment. […] N.S. = not significant. / = not applicable.
# In group 1, BALB/c mice were injected intravenously (i.v.) with 10 mg/kg of modulator, and their blood was collected at 10, 30, 60, 120, 240, and 480 min postadministration. In group 2, BALB/c mice were injected intraperitoneally (i.p.) with 30 mg/kg of modulator, and their blood was collected at 10, 30, 60, 180, 420, 840, and 1080 min postadministration.
# The pharmacokinetics of PTX was studied with or without the coadministered modulator. PTX (12 mg/kg i.v.) alone was injected into the BALB/c mice. For the combination study, modulator (30 mg/kg i.p.) was injected 1 h before injecting PTX (12 mg/kg i.v.). The blood was collected at 10, 30, 60, 120, 240, and 420 min after PTX administration. Blood samples were spun at 14,000 rpm for 10 min at 4 °C to collect plasma supernatant. Plasma concentration of methylated catechin derivatives or PTX was determined through UPLC-QQQ-MS as described in Section 4.9. Pharmacokinetic parameters were analyzed with PK Solutions 2.0 (Summit Research Service, Ashland, OH, USA).
# K562 cells = test: EC31 efflux in K562 cells; format: cell-based, human; details: after 150 min of efflux, preincubated with 1 µM
# Protocol: as §1, §2
# MRP1 = details: Cpds at 1 μM; IC50 of DOX without/with modulator; cited from earlier work
# P-gp [2] = system: P-gp; parameters: method as in PMID 25985195, PMID 34597896; details: cited from earlier work
# K562/P-gp leukemia = test: In vivo efficacy in reversing DOX resistance in human leukemia K562/P-gp model; parameters: species or system NOD/SCID mice
# Protocol: Irradiated BDF1 mice were i.p. inoculated with P388ADR cells, which caused mouse leukemia. Irradiated NOD/SCID mice were i.v. inoculated with K562/P-gp cells, which caused human leukemia. The mice were randomized and treated with (1) control treatment (no treatment), (2) DOX alone, and (3) EC31 + DOX. Treatments were given as indicated by the arrows. The number of mice deaths in each treatment group was recorded every day. (A) The percent survival of mice infected with P388ADR. (B) The percent survival of mice infected with K562/P-gp. The mice median survival days and the increased lifespan (ILS) were analyzed with Log-rank (Mantel–COX) test in Prism 5.0. Student’s paired t test was conducted as indicated. ** represents p < 0.01, and *** represents p < 0.001. N.S. = not significant.
# The mice were randomly distributed into 3 groups: (1) control group (no treatment), (2) DOX (0.9 mg/kg i.v.) alone, and (3) cotreatment with EC31 (30 mg/kg i.p.) being injected 1 h prior to DOX (0.9 mg/kg i.v.) administration. EC31 and DOX were injected on days 7, 11, 19, 23, and 27. Before each treatment, 0.2 mg/mL of DOX was freshly prepared using PBS. Mice survival and body weight were monitored during the study period.
# P-gp [3] = test: EC50 for reversing drug resistance in P388ADR cells (cell proliferation assay)
# P-gp [4] = biological target: P-gp (Homo sapiens, UniProt P08183); parameters: expressed in transfected cells; host or cells: MDA435/LCC6MDR (human breast cancer line, gift of Dr. Robert Clarke); details: Cpds at 1 μM; IC50 of PTX without/with modulator; cited from earlier work
# [5] = EC31 30 mg/kg i.p. + DOX 0.9 mg/kg i.v.
# P-gp (Homo sapiens, UniProt P08183), sequence (P08183 whole entry): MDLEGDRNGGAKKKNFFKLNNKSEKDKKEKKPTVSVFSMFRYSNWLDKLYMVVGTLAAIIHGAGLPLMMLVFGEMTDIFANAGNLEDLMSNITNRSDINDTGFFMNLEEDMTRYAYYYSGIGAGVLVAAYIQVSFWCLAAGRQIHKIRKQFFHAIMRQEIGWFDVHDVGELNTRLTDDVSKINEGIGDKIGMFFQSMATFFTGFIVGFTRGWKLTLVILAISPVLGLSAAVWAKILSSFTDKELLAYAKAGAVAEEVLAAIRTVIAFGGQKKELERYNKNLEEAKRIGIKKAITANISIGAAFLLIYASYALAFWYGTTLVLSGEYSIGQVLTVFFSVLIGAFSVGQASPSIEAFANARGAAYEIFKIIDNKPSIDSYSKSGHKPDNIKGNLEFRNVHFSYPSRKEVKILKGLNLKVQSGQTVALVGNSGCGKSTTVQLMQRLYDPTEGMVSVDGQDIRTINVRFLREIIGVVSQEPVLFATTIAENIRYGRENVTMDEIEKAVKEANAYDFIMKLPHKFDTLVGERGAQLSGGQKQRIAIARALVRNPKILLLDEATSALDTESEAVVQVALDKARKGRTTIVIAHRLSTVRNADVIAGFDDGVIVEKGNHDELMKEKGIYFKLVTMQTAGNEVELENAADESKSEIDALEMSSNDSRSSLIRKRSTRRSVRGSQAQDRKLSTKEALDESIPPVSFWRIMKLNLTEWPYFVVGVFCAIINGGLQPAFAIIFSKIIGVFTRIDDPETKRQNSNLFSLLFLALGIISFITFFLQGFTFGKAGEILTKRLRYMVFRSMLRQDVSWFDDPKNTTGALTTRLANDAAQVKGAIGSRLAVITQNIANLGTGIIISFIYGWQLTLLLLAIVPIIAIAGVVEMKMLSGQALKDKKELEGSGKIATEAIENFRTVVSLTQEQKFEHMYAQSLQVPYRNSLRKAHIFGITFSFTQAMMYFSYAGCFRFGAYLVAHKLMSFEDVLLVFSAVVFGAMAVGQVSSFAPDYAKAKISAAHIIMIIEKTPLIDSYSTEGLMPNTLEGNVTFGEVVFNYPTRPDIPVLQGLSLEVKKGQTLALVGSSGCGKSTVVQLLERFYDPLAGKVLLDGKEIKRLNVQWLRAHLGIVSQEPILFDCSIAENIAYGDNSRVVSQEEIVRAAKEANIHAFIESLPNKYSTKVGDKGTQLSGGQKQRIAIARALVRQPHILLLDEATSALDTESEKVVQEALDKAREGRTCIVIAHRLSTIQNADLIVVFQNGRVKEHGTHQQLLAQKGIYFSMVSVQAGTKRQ
compound,measurement,setting,value
COc1cc(OC)c2c(c1)O[C@H](c1ccc(OC)c(OC)c1)[C@H](OC(=O)c1ccc(F)c(NC(=O)c3cc(OC)c(OC)c(OC)c3)c1)C2 [EC31],EC31 remaining in cells,K562/P-gp cells,~16%
same,AUC(0-t),"[1]; ip, 30 mg/kg",17800 ng·h/mL
same,Cmax,"[1]; ip, 30 mg/kg",5610 ng/mL
same,Tmax,"[1]; ip, 30 mg/kg",1 h
same,half-life,"[1]; ip, 30 mg/kg",200 min
same,AUC(0-inf),"[1]; ip, 30 mg/kg",18400 ng·h/mL
same,AUC(0-t),"[1]; iv, 10 mg/kg",7240 ng·h/mL
same,half-life,"[1]; iv, 10 mg/kg",54.7 min
same,AUC(0-inf),"[1]; iv, 10 mg/kg",7290 ng·h/mL
same,EC31 remaining in cells,K562 cells,about 23%
same,2008MRP1 MRP1-modulating activity RF (relative fold),MRP1,1.3
same,effect on plasma membrane level of P-gp,P-gp [2],did not affect
same,median survival time,K562/P-gp leukemia; [5],37.0 days
same,prolongation of animal survival compared to DOX alone,K562/P-gp leukemia; [5],5 days
same,ILS% (increase in lifespan),K562/P-gp leukemia; EC31 30 mg/kg i.p. + DOX 0.9 mg/kg i.v. compared to DOX alone,15.6%
same,EC50,"P-gp [3]; read-out: EC50 for Reversing MDR, DOX Resistance, P388ADR, concentration that reduces IC50 of DOX by half",186 ± 31 nM
same,EC50,"P-gp [3]; read-out: EC50 for Reversing MDR, PTX Resistance, P388ADR, concentration that reduces IC50 of PTX by half",249 ± 18 nM
same,LCC6MDR P-gp-modulating activity RF (relative fold),P-gp [4],69.3
